Assay results published in the NIST ThermoML archive (doi:10.1016/j.fluid.2016.06.011).

Conditions: Liquid; for mass density: 101.33 kPa, Vibrating tube method; for vapor or sublimation pressure: Closed cell (Static) method

OCC(F)(F)C(F)(F)F [2,2,3,3,3-pentafluoropropanol]
Conditions	mass density [kg/m3]	vapor or sublimation pressure [kPa]
278.16 K	1542.78	–
279.15 K	1540.99	–
280.15 K	1539.17	–
281.15 K	1537.35	–
282.15 K	1535.52	–
283.15 K	1533.69	–
284.15 K	1531.86	–
285.15 K	1530.02	–
286.15 K	1528.18	–
287.15 K	1526.33	–
288.15 K	1524.47	–
289.15 K	1522.62	–
290.15 K	1520.75	–
291.15 K	1518.88	–
292.15 K	1517	–
293.15 K	1515.12	–
294.15 K	1513.23	–
295.15 K	1511.35	–
296.15 K	1509.44	–
297.15 K	1507.54	–
298.08 K	–	6.205
298.15 K	1505.63	–
299.15 K	1503.71	–
300.15 K	1501.79	–
301.15 K	1499.86	–
302.15 K	1497.92	–
303.05 K	–	8.416
303.15 K	1495.97	–
304.15 K	1494.03	–
305.14 K	1492.07	–
306.15 K	1490.1	–
307.15 K	1488.13	–
308.04 K	–	11.31
308.15 K	1486.15	–
309.14 K	1484.16	–
310.14 K	1482.16	–
311.14 K	1480.16	–
312.14 K	1478.14	–
313.01 K	–	14.97
313.14 K	1476.12	–
314.15 K	1474.09	–
315.15 K	1472.06	–
316.14 K	1470.01	–
317.14 K	1467.95	–
317.98 K	–	19.59
318.15 K	1465.89	–
319.14 K	1463.82	–
320.14 K	1461.73	–
321.15 K	1459.64	–
322.14 K	1457.55	–
322.96 K	–	25.41
323.14 K	1455.43	–
324.14 K	1453.31	–
325.14 K	1451.18	–
326.14 K	1449.05	–
327.14 K	1446.89	–
327.93 K	–	32.49
328.15 K	1444.74	–
329.15 K	1442.57	–
330.14 K	1440.39	–
331.14 K	1438.2	–
332.14 K	1436	–
333.14 K	1433.79	–
334.14 K	1431.57	–
335.14 K	1429.34	–
336.14 K	1427.1	–
337.14 K	1424.84	–
338.14 K	1422.58	–
339.14 K	1420.31	–
340.14 K	1418.03	–
341.14 K	1415.72	–
342.14 K	1413.42	–
343.15 K	1411.1	–
344.15 K	1408.78	–
345.15 K	1406.43	–
346.15 K	1404.08	–
347.15 K	1401.72	–
348.15 K	1399.34	–
349.14 K	1396.95	–
350.14 K	1394.55	–
351.14 K	1392.14	–
352.14 K	1389.72	–
353.14 K	1387.29	–

OCC(F)(F)C(F)(F)C(F)(F)C(F)(F)C(F)(F)F [2,2,3,3,4,4,5,5,6,6,6-undecafluorohexan-1-ol]
Conditions	mass density [kg/m3]	vapor or sublimation pressure [kPa]
278.14 K	–	0.0688
278.15 K	1746.4	–
279.15 K	1744.56	–
280.15 K	1742.69	–
281.15 K	1740.82	–
282.15 K	1738.95	–
283.1 K	–	0.1098
283.15 K	1737.07	–
284.15 K	1735.19	–
285.15 K	1733.3	–
286.15 K	1731.41	–
287.15 K	1729.52	–
288.08 K	–	0.1712
288.15 K	1727.62	–
289.15 K	1725.71	–
290.15 K	1723.81	–
291.15 K	1721.89	–
292.15 K	1719.98	–
293.08 K	–	0.2615
293.15 K	1718.06	–
294.15 K	1716.13	–
295.15 K	1714.2	–
296.15 K	1712.27	–
297.15 K	1710.32	–
298.13 K	–	0.3944
298.15 K	1708.38	–
299.15 K	1706.43	–
300.15 K	1704.47	–
301.15 K	1702.5	–
302.15 K	1700.54	–
303.1 K	–	0.5819
303.15 K	1698.57	–
304.15 K	1696.59	–
305.15 K	1694.61	–
306.15 K	1692.62	–
307.15 K	1690.62	–
308.06 K	–	0.8405
308.15 K	1688.62	–
309.15 K	1686.62	–
310.15 K	1684.61	–
311.15 K	1682.59	–
312.15 K	1680.57	–
313.01 K	–	1.205
313.15 K	1678.54	–
314.15 K	1676.51	–
315.15 K	1674.47	–
316.15 K	1672.43	–
317.15 K	1670.38	–
317.98 K	–	1.708
318.15 K	1668.32	–
319.15 K	1666.26	–
320.15 K	1664.19	–
321.15 K	1662.11	–
322.15 K	1660.03	–
322.93 K	–	2.349
323.15 K	1657.95	–
324.15 K	1655.85	–
325.15 K	1653.75	–
326.15 K	1651.65	–
327.15 K	1649.54	–
327.93 K	–	3.25
328.15 K	1647.42	–
329.15 K	1645.29	–
330.15 K	1643.16	–
331.15 K	1641.02	–
332.15 K	1638.87	–
333.15 K	1636.72	–
334.15 K	1634.57	–
335.15 K	1632.41	–
336.15 K	1630.23	–
337.15 K	1628.06	–
338.15 K	1625.88	–
339.15 K	1623.69	–
340.15 K	1621.49	–
341.15 K	1619.29	–
342.15 K	1617.08	–
343.15 K	1614.86	–
344.15 K	1612.64	–
345.15 K	1610.41	–
346.15 K	1608.17	–
347.15 K	1605.92	–
348.15 K	1603.67	–
